ChEMBL document CHEMBL1201862, “PubChem BioAssay data set” (2004)
The source made the active and inactive calls.

Assays:
[1] = molecular target: T1, Zinc finger protein mex-5 (Caenorhabditis elegans, UniProt Q9XUB2); assay: potency of MEX-5 RNA-binding blockers – biochemical, C. elegans, fluorescence polarization, dose response (AID 1960)
T1 sequence (Q9XUB2 whole entry): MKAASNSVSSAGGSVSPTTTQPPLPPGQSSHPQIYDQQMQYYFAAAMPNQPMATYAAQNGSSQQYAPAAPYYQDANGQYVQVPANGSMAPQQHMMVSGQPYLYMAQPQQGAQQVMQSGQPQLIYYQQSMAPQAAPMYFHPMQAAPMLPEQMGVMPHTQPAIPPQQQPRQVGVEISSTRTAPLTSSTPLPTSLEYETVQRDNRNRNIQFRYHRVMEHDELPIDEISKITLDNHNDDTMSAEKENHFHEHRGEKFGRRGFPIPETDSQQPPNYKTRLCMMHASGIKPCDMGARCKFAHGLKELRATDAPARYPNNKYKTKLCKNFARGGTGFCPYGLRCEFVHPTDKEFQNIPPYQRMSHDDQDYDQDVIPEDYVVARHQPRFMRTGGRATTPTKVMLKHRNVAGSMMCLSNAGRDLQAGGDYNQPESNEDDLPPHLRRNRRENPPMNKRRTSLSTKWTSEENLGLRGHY

[2] = molecular target: T2, RNA-binding protein pos-1 (Caenorhabditis elegans, UniProt G5EF15); assay: disruptors of C. elegans POS-1 RNA interaction – biochemical, fluorescence polarization, dose response (AID 1964);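 note: purified POS-1 fused to maltose binding protein made in E. coli; potency of compounds blocking POS-1 binding to fluorescent RNA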
T2 sequence (G5EF15 whole entry): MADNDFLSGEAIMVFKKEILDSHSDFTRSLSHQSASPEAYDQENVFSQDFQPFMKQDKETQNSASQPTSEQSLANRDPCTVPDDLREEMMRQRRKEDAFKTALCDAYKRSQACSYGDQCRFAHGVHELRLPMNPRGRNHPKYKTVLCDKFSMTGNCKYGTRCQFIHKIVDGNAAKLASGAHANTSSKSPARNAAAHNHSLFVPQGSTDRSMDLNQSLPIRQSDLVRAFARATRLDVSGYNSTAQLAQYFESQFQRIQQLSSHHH

Aminopeptidase N = molecular target: T3, Aminopeptidase N (Plasmodium falciparum FcB1/Columbia, UniProt O96935); assay: malaria alanyl aminopeptidase activity blockers – biochemical, fluorogenic H-Leu-NHMec substrate, 1536-well (AID 1445); design: species or system Plasmodium falciparum 3D7, 3D7
T3 sequence (O96935 whole entry): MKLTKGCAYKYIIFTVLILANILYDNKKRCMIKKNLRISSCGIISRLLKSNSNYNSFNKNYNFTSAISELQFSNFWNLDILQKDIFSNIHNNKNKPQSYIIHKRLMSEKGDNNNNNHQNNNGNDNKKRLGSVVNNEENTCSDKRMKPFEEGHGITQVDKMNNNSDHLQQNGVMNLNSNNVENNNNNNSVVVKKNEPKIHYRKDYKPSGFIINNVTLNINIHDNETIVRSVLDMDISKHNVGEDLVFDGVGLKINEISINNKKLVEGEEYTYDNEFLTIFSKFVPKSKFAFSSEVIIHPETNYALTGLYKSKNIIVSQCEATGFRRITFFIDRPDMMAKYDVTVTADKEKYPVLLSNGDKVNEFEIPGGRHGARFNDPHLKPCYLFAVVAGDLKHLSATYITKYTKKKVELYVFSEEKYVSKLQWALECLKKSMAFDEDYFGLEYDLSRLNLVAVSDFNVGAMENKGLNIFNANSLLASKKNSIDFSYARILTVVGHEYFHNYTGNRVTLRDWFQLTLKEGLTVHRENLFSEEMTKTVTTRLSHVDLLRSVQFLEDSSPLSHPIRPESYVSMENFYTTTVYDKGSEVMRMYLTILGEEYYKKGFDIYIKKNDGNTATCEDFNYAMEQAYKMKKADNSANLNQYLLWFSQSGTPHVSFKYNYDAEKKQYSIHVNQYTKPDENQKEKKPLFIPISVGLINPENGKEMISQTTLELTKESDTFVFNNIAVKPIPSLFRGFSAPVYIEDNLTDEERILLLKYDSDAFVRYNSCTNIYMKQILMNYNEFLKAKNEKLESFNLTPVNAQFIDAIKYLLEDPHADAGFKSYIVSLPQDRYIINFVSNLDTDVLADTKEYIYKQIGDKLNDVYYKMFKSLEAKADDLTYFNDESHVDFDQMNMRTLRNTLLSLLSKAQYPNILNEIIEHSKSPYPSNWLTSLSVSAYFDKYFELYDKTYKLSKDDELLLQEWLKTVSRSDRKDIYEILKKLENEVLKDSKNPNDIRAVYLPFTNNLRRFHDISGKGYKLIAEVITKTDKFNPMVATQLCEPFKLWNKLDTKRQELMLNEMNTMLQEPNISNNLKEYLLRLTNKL

Cytochrome P450 2C19 = Cytochrome P450 2C19 (Homo sapiens, UniProt P33261); assay: Cytochrome panel assay with activity outcomes. Panel member name: p450-cyp2c19 Compounds with AC50 equal or less than 10 uM are considered active; format: functional; conditions: read-out: AC50
Cytochrome P450 2C9 = Cytochrome P450 2C9 (Homo sapiens, UniProt P11712)
Streptococcus = assay: GAS UMAA2166 growth inhibition – luminescence, BacTiterGlo, counter-screen for streptokinase expression inhibitor project, dose response (AID 1915); format: functional, organism-based;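 note: potency for reduction of bacterial viability or growth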
BJ [3] = assay: BJ-TERT fibroblast viability loss – cell-based, RAS-independent, luminescence, dose response (AID 1933); format: functional; conditions: Homo sapiens
BJ [4] = assay: cells; format: functional, cell-based; conditions: Homo sapiens
[5] = DRD fibroblast viability loss – cell-based, non-viral oncogenic, luminescence, dose response (AID 1934); format: functional; conditions: Homo sapiens
[6] = system: Streptococcus sp. 'group A'; assay: Streptococcus pyogenes SK(-)GAS viability under kanamycin – luminescence, BacTiterGlo, confirmation, counter-screen for streptokinase expression inhibitor project, dose response (AID 1900); format: functional, organism-based
BJ [7] = assay: BJ-TERT-LT-ST fibroblast viability loss – cell-based, RAS-independent, luminescence, dose response (AID 1935); format: functional; conditions: Homo sapiens;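 note: BJ fibroblasts immortalized with TERT plus LT and ST oncogenes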

Cytochrome P450 2C9, sequence (P11712 whole entry): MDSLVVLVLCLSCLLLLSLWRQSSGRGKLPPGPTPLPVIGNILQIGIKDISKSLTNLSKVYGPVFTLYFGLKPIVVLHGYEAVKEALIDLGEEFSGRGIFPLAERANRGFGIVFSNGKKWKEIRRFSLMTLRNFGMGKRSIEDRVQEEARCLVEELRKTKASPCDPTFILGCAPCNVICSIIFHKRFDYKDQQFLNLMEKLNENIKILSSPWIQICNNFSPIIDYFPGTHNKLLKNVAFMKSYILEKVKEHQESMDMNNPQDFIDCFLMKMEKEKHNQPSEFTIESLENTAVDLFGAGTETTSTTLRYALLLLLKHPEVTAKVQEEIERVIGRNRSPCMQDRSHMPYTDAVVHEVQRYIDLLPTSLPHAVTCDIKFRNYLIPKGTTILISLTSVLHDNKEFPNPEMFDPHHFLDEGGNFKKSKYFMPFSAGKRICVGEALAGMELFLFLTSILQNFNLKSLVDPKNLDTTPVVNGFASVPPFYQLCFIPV
Cytochrome P450 2C19, sequence (P33261 whole entry): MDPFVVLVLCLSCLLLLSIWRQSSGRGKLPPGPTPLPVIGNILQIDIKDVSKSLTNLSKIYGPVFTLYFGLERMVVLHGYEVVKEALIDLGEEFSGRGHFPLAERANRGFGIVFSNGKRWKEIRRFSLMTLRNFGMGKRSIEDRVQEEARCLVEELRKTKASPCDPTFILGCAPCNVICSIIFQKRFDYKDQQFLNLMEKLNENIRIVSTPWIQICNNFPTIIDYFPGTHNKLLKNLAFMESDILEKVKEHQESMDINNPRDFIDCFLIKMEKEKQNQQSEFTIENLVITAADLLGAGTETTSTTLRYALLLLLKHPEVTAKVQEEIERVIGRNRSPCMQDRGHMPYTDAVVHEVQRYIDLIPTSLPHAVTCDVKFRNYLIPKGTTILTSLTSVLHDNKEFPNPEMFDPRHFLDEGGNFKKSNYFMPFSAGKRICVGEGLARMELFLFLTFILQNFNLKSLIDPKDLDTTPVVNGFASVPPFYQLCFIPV

CCOC(=O)N1CCN(c2nc3ccccc3nc2C(C#N)S(=O)(=O)c2ccc(C)cc2)CC1 (stereo unspecified)
EC50 [1]: 170 µM (inconclusive)
EC50 [2]: > 300 µM (inconclusive)

NS(=O)(=O)c1ccc(-c2cccc(/C=C3\SC(=O)NC3=O)c2)cc1
EC50 [1]: 16.6 µM (active)
EC50 [2]: 13 µM (active)

COc1ccc(OC)c(NC(=O)C2C3C=CC(C3)C2C(=O)NCc2cccnc2)c1 (stereo unspecified)
IC50 (Aminopeptidase N): 48.2 µM (active)

COc1ccc(/C=C/C(O)=C2\C(=O)NC(=O)N(CCC3=CCCCC3)C2=O)cc1OC
EC50 [1]: > 300 µM (inconclusive)
EC50 [2]: 6.09 µM (inconclusive)

CN1C(=O)C(=Cc2ccc(N3CCCCC3)o2)C(=O)N(C)C1=S
EC50 [1]: > 300 µM (inconclusive)
AC50 (Cytochrome P450 2C19): 2.82 µM (inconclusive)
EC50 [2]: > 300 µM (inconclusive)
AC50 (Cytochrome P450 2C9): 11.2 µM (inconclusive)

Cc1ccc(-n2nc(C)c(/C=N/NC(=O)c3cccc([N+](=O)[O-])c3)c2O)cc1C
EC50 (Streptococcus): 6.18 µM (active)
EC50 (BJ [3]): 9.53 µM (active)
EC50 (BJ [4]): 37 µM (active)
EC50 [5]: 10 µM (active)
EC50 [6]: 2.02 µM (active)
EC50 (BJ [7]): 16 µM (active)

Oc1cccc2cccnc12 [OXYQUINOLINE]
EC50 (BJ [3]): > 150 µM (not active)
EC50 (BJ [4]): 125 µM (active)
EC50 [5]: 17.9 µM (active)
EC50 (BJ [7]): > 150 µM (not active)
